Measured values taken from patent US6933108B2 (priority 1999, dated 2005).
“Also recorded” adds a separate entry of the source.

What was measured:
MBG pseudotype virus = type: cell-based, Marburg virus
EBO-Z pseudotype virus = type: cell-based, Ebola-Zaire virus
Ampho luciferase virus = type: cell-based, amphotropic murine leukemia virus
[1] = tested on: Filoviruses, including the Marburg and Ebola viruses; settings: cited from earlier work
FR-α = FR-α (Homo sapiens, UniProt P15328); settings: cited from earlier work
Sequence of FR-α (P15328 25-234): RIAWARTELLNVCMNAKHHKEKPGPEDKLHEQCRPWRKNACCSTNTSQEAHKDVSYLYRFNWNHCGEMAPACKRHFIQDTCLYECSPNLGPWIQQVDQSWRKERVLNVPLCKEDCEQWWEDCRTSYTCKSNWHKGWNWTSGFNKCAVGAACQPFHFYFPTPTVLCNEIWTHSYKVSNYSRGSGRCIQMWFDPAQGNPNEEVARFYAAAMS

Nc1nc2ncc(CNc3ccc(C(=O)N[C@@H](CCC(=O)O)C(=O)O)cc3)nc2c(=O)[nH]1 [folic acid]
entry by MBG luciferase virus (MBG pseudotype virus): specifically inhibited | reduction of MBG virus entry (MBG pseudotype virus): ~80% | entry by EBO-Z virus (EBO-Z pseudotype virus): inhibited significantly; also recorded: specifically inhibited | entry by Ampho luciferase pseudotype (Ampho luciferase virus): very slight alteration; also recorded: did not significantly decrease; also recorded: not Ampho

NC(=O)c1ncn([C@@H]2O[C@H](CO)[C@@H](O)[C@H]2O)n1 [ribavirin]
in vitro effect against filoviruses [1]: no in vitro effect

CN1c2c(nc(N)[nH]c2=O)NCC1CNc1ccc(C(=O)N[C@@H](CCC(=O)O)C(=O)O)cc1 (stereo partly drawn) [5-methyltetrahydrofolic acid]
binding affinity to FR-α (FR-α): high affinity
